Results from paper PMC2574866 (Drug metabolism and disposition: the biological fate of …, 2008).
Read-outs that look alike come from different tables or passages of the source.

Experiments:
[1] = biological target: bovine serum albumin (BSA) / essentially fatty acid-free BSA (BSA-FAF) (Bos taurus, UniProt P02769)
[2] = test system: sandwich-cultured rat hepatocytes; conditions: for biliary excretion index (BEI), effect of BSA-FAF / unbound intrinsic biliary clearance (intrinsic Cl'biliary), effect of BSA-FAF: 4% (w/v) BSA-FAF vs no BSA or BSA
[3] = literature value, cited from earlier work
[4] = 4% (w/v) BSA vs no BSA, 10 min incubation
[5] = addition of 1 mM Ca2+ (calcium chloride) to BSA-FAF, n = 1 liver
[6] = six long chain fatty acids added to BSA-FAF, n = 1 liver

Chain of bovine serum albumin (BSA) / essentially fatty acid-free BSA (BSA-FAF) (P02769 25-607): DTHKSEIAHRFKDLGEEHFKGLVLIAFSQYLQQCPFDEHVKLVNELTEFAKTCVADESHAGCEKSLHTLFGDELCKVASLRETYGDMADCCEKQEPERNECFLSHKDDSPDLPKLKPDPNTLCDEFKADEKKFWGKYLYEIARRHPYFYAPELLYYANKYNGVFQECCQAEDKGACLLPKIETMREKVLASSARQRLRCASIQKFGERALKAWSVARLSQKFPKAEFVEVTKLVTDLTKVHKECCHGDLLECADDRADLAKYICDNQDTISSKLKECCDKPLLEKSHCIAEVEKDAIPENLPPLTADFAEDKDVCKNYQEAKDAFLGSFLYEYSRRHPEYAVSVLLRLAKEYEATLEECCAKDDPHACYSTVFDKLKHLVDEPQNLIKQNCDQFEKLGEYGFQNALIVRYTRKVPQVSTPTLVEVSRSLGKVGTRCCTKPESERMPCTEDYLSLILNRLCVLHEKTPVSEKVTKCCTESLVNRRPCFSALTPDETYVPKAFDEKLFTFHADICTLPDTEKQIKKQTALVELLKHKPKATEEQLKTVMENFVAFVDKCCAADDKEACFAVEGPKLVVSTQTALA

fu dependence on compound concentration [1] | fu in the presence of BSA compared to BSA-FAF [1] | biliary excretion index (BEI), effect of BSA [2, 4] | unbound intrinsic biliary clearance (intrinsic Cl'biliary), effect of BSA [2, 4] | biliary excretion index (BEI), effect of BSA-FAF ([2]; 10 min incubation) | unbound intrinsic biliary clearance (intrinsic Cl'biliary), effect of BSA-FAF ([2]; 10 min incubation) | BEI in the presence of BSA-FAF, effect of additional Ca2+ [2, 5] | intrinsic Cl'biliary in the presence of BSA-FAF, effect of additional Ca2+ [2, 5] | fu in the presence of BSA-FAF, effect of addition of long chain fatty acids [1] | BEI in the presence of BSA-FAF, effect of addition of long chain fatty acids [2, 6] | intrinsic Cl'biliary in the presence of BSA-FAF, effect of addition of long chain fatty acids [2, 6] | SMILES | unbound fraction (fu) ([3]; ref Lacy et al., 2002) | binding to albumin ([1]; bovine) | accumulation in sandwich-cultured rat hepatocytes ([2]; in the presence of BSA or BSA-FAF vs no BSA) | unbound fraction (fu) ([3]; ref Forker and Luxon, 1981, Hung et al., 2005) | unbound fraction (fu) ([3]; ref Hatanaka, 2000)
concentration-independent | significantly higher | not altered | not altered | significantly decreased | significantly decreased | unable to restore | unable to restore | – | – | – | C[C@H]1O[C@@H](O[C@H]2[C@@H](O)C[C@H](O[C@H]3[C@@H](O)C[C@H](O[C@H]4CC[C@@]5(C)[C@H](CC[C@@H]6[C@@H]5C[C@@H](O)[C@]5(C)[C@@H](C7=CC(=O)OC7)CC[C@]65O)C4)O[C@@H]3C)O[C@@H]2C)C[C@H](O)[C@@H]1O [digoxin] | ~ 0.7 | – | – | – | –
concentration-independent | significantly higher | – | not significantly different | significantly decreased | significantly decreased | – | – | unable to mitigate this effect | unable to mitigate this effect | unable to mitigate this effect | CC[C@H](C)C(=O)O[C@H]1C[C@H](O)C=C2C=C[C@H](C)[C@H](CC[C@@H](O)C[C@@H](O)CC(=O)O)[C@H]21 [pravastatin] | – | – | – | – | ~ 0.5

SMILES | fu dependence on compound concentration [1] | fu in the presence of BSA compared to BSA-FAF [1] | biliary excretion index (BEI), effect of BSA [2, 4] | unbound intrinsic biliary clearance (intrinsic Cl'biliary), effect of BSA [2, 4] | biliary excretion index (BEI), effect of BSA-FAF ([2]; 10 min incubation) | unbound intrinsic biliary clearance (intrinsic Cl'biliary), effect of BSA-FAF ([2]; 10 min incubation) | BEI in the presence of BSA-FAF, effect of additional Ca2+ [2, 5] | intrinsic Cl'biliary in the presence of BSA-FAF, effect of additional Ca2+ [2, 5] | fu in the presence of BSA-FAF, effect of addition of long chain fatty acids [1] | BEI in the presence of BSA-FAF, effect of addition of long chain fatty acids [2, 6] | intrinsic Cl'biliary in the presence of BSA-FAF, effect of addition of long chain fatty acids [2, 6] | unbound fraction (fu) ([3]; ref Lacy et al., 2002) | binding to albumin ([1]; bovine) | accumulation in sandwich-cultured rat hepatocytes ([2]; in the presence of BSA or BSA-FAF vs no BSA) | unbound fraction (fu) ([3]; ref Forker and Luxon, 1981, Hung et al., 2005) | unbound fraction (fu) ([3]; ref Hatanaka, 2000)
C[C@H](CCC(=O)NCCS(=O)(=O)O)[C@H]1CC[C@H]2[C@@H]3[C@H](O)C[C@@H]4C[C@H](O)CC[C@]4(C)[C@H]3C[C@H](O)[C@]12C [taurocholate] | concentration-independent | significantly higher | – | unaffected | – | – | – | – | – | – | – | – | approximately 85% | notably decreased | ~ 0.15 | –
